Key:
[1] = system: wire worm (Agriotes sp.) larvae; experiment: Efficacy test of corn seed treatment against Agriotes sp.; format: in vivo; settings: corn seeds coated, 42 days; for Healthy stock ratio: 50 g compound per 50,000 seeds, 12 larvae per 12-seed container, outdoors
Text: Efficacy test of corn seed treatment against Agriotes sp.
(§1) The compound (1) (30 parts), tristyryl-based surfactant (6.0 parts), dioctylsulfosuccinate metal salt (1.5 parts), silicone-based defoamer (1.2 parts), xanthan gum (0.2 parts), 1,2-benzisothiazolin-3-one (0.1 parts), propylene glycol (5.0 parts), and water (56 parts) were mixed to prepare a reagent solution.
Corn seeds were coated with the reagent solution so that the treatment amount of the compound (1) was 50 g per 50,000 seeds.
Further, corn seeds were similarly coated with tefluthrin as a control agent so that the treatment amount was 10 g per 50,000 seeds.
The treated seeds were planted in a 12-seed container and inoculated with 12 wire worm (Agriotes sp.) larvae. The container was placed outdoors, and 42 days later, the number of healthy stocks and the number of damaged stocks were investigated to determine the efficacy. The test was repeated 4 times.
The healthy stock ratio was calculated using the following formula.
Healthy stock ratio (%)=100×(number of healthy stocks/number of seeds)

Phyllotreta striolata = experiment: Efficacy test of rape seed treatment against Phyllotreta striolata; format: in vivo; settings: rape seeds coated, 10 g per 100 kg of seeds; inoculated 14 days after planting; 6 days after releasing the insects; 25° C., humidity 65%
Text: Efficacy test of rape seed treatment against Phyllotreta striolata
as §1, with “(I)” for “(1)”
Rape seeds were coated with the reagent solution so that the treatment amount of the compound (I) was 10 g per 100 kg of seeds.
The treated seeds were planted in a 10-seed pot and raised in a greenhouse for 14 days. After that, each pot was inoculated with 5 Phyllotreta striolata. The pots were stored in a constant temperature room at a temperature of 25° C. and at a humidity of 65%.
The life/death determination was made 6 days after releasing the insects, and the insecticidal rate was calculated by the following formula. The test was repeated 3 times.
Insecticidal rate (%)=(number of dead insects/number of test insects)×100

SMILES	Healthy stock ratio [1]	Insecticidal rate (Phyllotreta striolata)	healthy stock rate ([1]; control agent, 10 g per 50,000 seeds)	Healthy stock ratio ([1]; unit not given)
CCS(=O)(=O)c1cc(C2CC2)cnc1-c1ncc(C=C(Cl)C(F)(F)F)n1C [formula (II)]	83.3%	100%	–	–
Cc1c(F)c(F)c(COC(=O)[C@@H]2[C@H](/C=C(\Cl)C(F)(F)F)C2(C)C)c(F)c1F (racemic) [tefluthrin, reference compound]	–	–	62.5%	–
CCS(=O)(=O)c1cc(C2CC2)cnc1-c1ncc(C(F)C(F)(C(F)(F)F)C(F)(F)F)n1C (centres unmarked) [formula (III)]	–	100%	–	81.3

Reference: patent US20240108004A1, “METHOD FOR CONTROLLING INSECTS IN CROP PLANTS, SEEDS AND COMPOSITION” (Nippon Soda Co., Ltd., priority 2021, published 2024)
